From patent US11040967B2, “TYK2 inhibitors, uses, and methods for production thereof” (Nimbus Lakshmi, Inc., priority 2017, dated 2021)
Values belong to the compound of their own block, whether it stands above or below them.

Assays:
[1] = Dissolution Assay in Fasted Simulated Gastric Fluid; type: physicochemical; details: Fasted Simulated Gastric Fluid (FaSSGF), 37° C.
Experimental: The dissolution bath was filled with 900 mL of media for testing, the bath temperature held at 37° C., the rotation rate of the apparatus was 50 rpm, the draw point for the sampling probe was set exactly halfway between the surface of the media and the surface of the disc. The test article (0.4 g) was compressed into a disc using a Woods apparatus. The sampling time points were 10, 30, 60, 90, 120, 150 & 180. The samples were analysed by HPLC for concentration against a sample preparation of known concentration (ca. 0.5 mg/ml). Dissolution rate was derived from the curve of concentration against time.

[2] = Solid form stability of Compound 1 mesylate forms; type: physicochemical

dissolution rate [1]: 57.5 μg/cm^2/min
SMILES: O=C1NCc2nc(-c3c(F)cccc3F)cc(Nc3ccc(C(=O)N4CCCC4)cc3)c21 [Compound 1]

dissolution rate [1]: 21.2 μg/cm^2/min
SMILES: O=C1NCc2nc(-c3c(F)cccc3F)cc(Nc3ccc(C(=O)N4CCOCC4)cc3)c21 [Compound 9]

solid form stability ([2]; upon drying under ambient conditions): transition to Form IV
SMILES: CS(=O)(=O)O.O=C1NCc2nc(-c3c(F)cccc3F)cc(Nc3ccc(C(=O)N4CCCC4)cc3)c21 [Form III]

solid form stability ([2]; ambient conditions): stable at ambient conditions
SMILES: CS(=O)(=O)O.O=C1NCc2nc(-c3c(F)cccc3F)cc(Nc3ccc(C(=O)N4CCCC4)cc3)c21 [Form IV]

solid form stability ([2]; upon grinding): transition to Form I
SMILES: CS(=O)(=O)O.O=C1NCc2nc(-c3c(F)cccc3F)cc(Nc3ccc(C(=O)N4CCCC4)cc3)c21 [Form V]
